# pIC50: −log10 of the molar value.
# Assays:
# [1] = target: T1, Hepatocyte growth factor receptor (Homo sapiens, UniProt P08581); experiment: Inhibition of recombinant c-Met (unknown origin) using peptide as substrate in presence of ATP by TR-FRET assay
# [2] = test system: Hs746T; experiment: Antiproliferative activity against human Hs746T cells assessed as reduction in cell viability incubated for 72 hrs by WST-8 assay; format: functional, cell-based
# [3] = test system: MKN-45; experiment: cells; conditions: Homo sapiens, MKN-45, 72 h
# [4] = target: T1, Hepatocyte growth factor receptor; experiment: Inhibition of c-Met (unknown origin) kinase activity using poly(Glu-Tyr) at 4:1 ratio as substrate in presence of ATP incubated for 30 mins by HTRF assay
# [5] = target: T1, Hepatocyte growth factor receptor; experiment: Inhibition of c-Met (unknown origin) using poly(Glu-Tyr) at 4:1 ratio as substrate in presence of ATP incubated for 60 mins by ELISA
# [6] = target: T1, Hepatocyte growth factor receptor; experiment: Inhibition of c-Met (unknown origin) kinase activity using peptide as substrate in presence of ATP incubated for 1 hrs by ELISA
# [7] = test system: BaF3; experiment: Antiproliferative activity against mouse BaF3 cells expressing […] protein assessed as reduction in cell proliferation incubated for 72 hrs by Cell Titer-Glo luminescence assay; format: functional, cell-based; conditions: BaF3, 72 h
# [8] = test system: MKN-45; experiment: Antiproliferative activity against human MKN-45 cells assessed as reduction in cell proliferation incubated for 48 hrs; format: functional, cell-based; conditions: MKN-45, 48 h
# [9] = target: T1, Hepatocyte growth factor receptor; experiment: Inhibition of c-Met (unknown origin) kinase activity using biotinylated poly-tyrosine as substrate in presence of ATP incubated for 1 hr by AlphaQuest analysis
# [10] = test system: EBC-1; experiment: Antiproliferative activity against human EBC-1 cells assessed as reduction in cell proliferation incubated for 72 hrs by CellTiter-Glo luminescent assay; format: functional, cell-based; conditions: EBC-1, 72 h
# [11] = test system: MKN-45; experiment: Antiproliferative activity against human MKN-45 cells assessed as reduction in cell proliferation incubated for 72 hrs by CellTiter-Glo luminescent assay; format: functional, cell-based; conditions: MKN-45, 72 h
# [12] = test system: NIH3T3; experiment: cells; conditions: Mus musculus, NIH3T3, 72 h
# [13] = test system: SNU-5; experiment: cells; conditions: Homo sapiens, SNU-5, 72 h
# [14] = test system: BaF3; experiment: cells; conditions: Mus musculus, BaF3, 72 h
# [15] = test system: NIH3T3; experiment: In vivo antitumor activity against mouse NIH3T3 cells expressing […] protein xenografted in nude mouse assessed as tumor growth inhibition at 100 mg/kg,po for 11 days; format: functional; conditions: NIH3T3, 264 h, time 11 day, read-out: TGI
# [16] = Half life in mouse at 10 mg/kg, po; format: ADME, organism-based; conditions: in vivo
# [17] = Cmax in mouse at 10 mg/kg, po; format: ADME, organism-based; parameters: dose 10 mg/kg, route po; conditions: in vivo
# [18] = Oral bioavailability in mouse at 10 mg/kg; format: ADME, organism-based; conditions: in vivo
# [19] = AUC in mouse at 10 mg/kg, po; format: ADME, organism-based; parameters: dose 10 mg/kg, route po; conditions: in vivo
# [20] = test system: MKN-45; experiment: cells; conditions: Homo sapiens, MKN-45, 72 h; remark: listed apart in the source
# [21] = test system: EBC-1; experiment: cells; conditions: Homo sapiens, EBC-1, 72 h
# [22] = test system: EBC-1; experiment: cells; conditions: Homo sapiens, EBC-1, 72 h; remark: listed apart in the source
# [23] = test system: A549; experiment: Antiproliferative activity against human A549 cells assessed as reduction in cell proliferation incubated for 48 hrs by sulforhodamine B assay; format: functional, cell-based; conditions: A549, 48 h
# [24] = test system: MKN-45; experiment: Antiproliferative activity against human MKN-45 cells assessed as reduction in cell proliferation incubated for 48 hrs by sulforhodamine B assay; format: functional, cell-based; conditions: MKN-45, 48 h
# [25] = test system: HT-29; experiment: Antiproliferative activity against human HT-29 cells assessed as reduction in cell proliferation incubated for 48 hrs by sulforhodamine B assay; format: functional, cell-based; conditions: HT-29, 48 h
# [26] = target: T1, Hepatocyte growth factor receptor; experiment: Inhibition of c-Met (unknown origin) kinase activity using peptide as substrate in presence of 33P-ATP incubated for 20 to 30 mins by scintillation counter analysis
# [27] = target: T1, Hepatocyte growth factor receptor; experiment: Inhibition of His6-tagged recombinant human c-Met using 5FAM-KKK-SPGEYVNIGFG-NH2 as substrate in presence of ATP incubated for 60 mins by AiphaQuest assay
# [28] = test system: A549; experiment: Antiproliferative activity against human A549 cells assessed as reduction in cell viability incubated for 24 hrs by MTT assay; format: functional, cell-based; conditions: A549, 24 h
# [29] = test system: HepG2; experiment: Antiproliferative activity against human HepG2 cells assessed as reduction in cell viability incubated for 24 hrs by MTT assay; format: functional, cell-based; conditions: HepG2, 24 h
# [30] = test system: HeLa; experiment: Antiproliferative activity against human HeLa cells assessed as reduction in cell viability incubated for 24 hrs by MTT assay; format: functional, cell-based
# [31] = test system: Bel-7402; experiment: Antiproliferative activity against human Bel-7402 cells assessed as reduction in cell viability incubated for 24 hrs by MTT assay; format: functional, cell-based; conditions: Bel-7402, 24 h
# [32] = target: T1, Hepatocyte growth factor receptor; experiment: Inhibition of c-Met (unknown origin)
# [33] = test system: HepG2; experiment: Antiproliferative activity against human HepG2 cells assessed as reduction in cell proliferation incubated for 48 hrs by MTT assay; format: functional, cell-based; conditions: HepG2, 48 h
# [34] = test system: BaF3; experiment: cells; conditions: Mus musculus, BaF3, 72 h; remark: listed apart in the source
# [35] = test system: HUVEC; experiment: cells; conditions: Homo sapiens, 72 h
# [36] = test system: HT-29; experiment: Antiproliferative activity against human HT-29 cells assessed as reduction in cell proliferation incubated for 72 hrs by MTT assay; format: functional, cell-based; conditions: HT-29, 72 h
# T1 sequence (P08581 whole entry): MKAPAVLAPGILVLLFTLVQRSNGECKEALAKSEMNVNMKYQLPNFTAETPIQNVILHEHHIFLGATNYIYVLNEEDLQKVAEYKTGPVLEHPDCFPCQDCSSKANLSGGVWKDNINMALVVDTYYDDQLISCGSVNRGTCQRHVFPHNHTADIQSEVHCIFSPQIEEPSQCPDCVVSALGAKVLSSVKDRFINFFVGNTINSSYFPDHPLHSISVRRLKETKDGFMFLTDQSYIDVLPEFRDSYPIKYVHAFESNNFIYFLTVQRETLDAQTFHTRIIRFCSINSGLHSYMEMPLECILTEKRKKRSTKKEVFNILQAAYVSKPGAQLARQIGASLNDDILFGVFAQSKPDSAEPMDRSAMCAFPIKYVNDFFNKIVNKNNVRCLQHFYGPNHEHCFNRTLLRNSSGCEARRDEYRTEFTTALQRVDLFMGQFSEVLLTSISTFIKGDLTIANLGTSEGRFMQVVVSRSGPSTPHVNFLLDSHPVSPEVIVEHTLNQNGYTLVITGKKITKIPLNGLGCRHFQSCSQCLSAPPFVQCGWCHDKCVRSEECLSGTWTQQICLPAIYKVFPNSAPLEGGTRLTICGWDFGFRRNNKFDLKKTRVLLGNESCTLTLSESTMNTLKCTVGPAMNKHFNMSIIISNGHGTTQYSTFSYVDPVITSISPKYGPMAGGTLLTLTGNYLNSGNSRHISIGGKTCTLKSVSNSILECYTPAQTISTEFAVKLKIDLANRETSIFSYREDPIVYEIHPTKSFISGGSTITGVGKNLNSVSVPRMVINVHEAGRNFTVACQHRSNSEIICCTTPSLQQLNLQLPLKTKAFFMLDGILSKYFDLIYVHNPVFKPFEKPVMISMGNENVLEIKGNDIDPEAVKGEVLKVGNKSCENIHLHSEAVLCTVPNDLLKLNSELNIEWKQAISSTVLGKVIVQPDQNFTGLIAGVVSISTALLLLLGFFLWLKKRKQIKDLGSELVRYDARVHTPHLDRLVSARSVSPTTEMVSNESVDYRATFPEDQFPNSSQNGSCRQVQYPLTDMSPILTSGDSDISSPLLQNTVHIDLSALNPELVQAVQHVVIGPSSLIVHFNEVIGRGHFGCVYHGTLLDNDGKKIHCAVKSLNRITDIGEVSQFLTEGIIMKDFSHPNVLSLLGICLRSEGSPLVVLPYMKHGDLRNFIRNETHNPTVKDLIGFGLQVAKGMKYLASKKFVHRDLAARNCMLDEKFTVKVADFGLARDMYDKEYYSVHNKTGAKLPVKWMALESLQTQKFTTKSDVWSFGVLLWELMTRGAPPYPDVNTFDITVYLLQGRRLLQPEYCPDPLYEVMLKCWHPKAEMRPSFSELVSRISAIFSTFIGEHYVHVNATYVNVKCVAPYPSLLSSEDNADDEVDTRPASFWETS
smiles,measurement,setting,value
Cn1cc(-c2ccc(=O)n(C[C@@H]3CN(c4ncc(OCC5CCNCC5)cn4)CCO3)n2)cn1,pIC50,[1],7.72
same,pIC50,[2],5.50
COc1cc2c(Oc3ccc(NC(=O)c4cn(-c5ccccc5C(F)(F)F)c5ccccc5c4=O)cc3F)ccnc2cc1OCCCN1CCCCC1,pIC50,[3],8.00
same,pIC50,[4],8.87
Cc1ccc(N2NC(=O)/C(=C/c3ccc(-c4cc([N+](=O)[O-])ccc4O)o3)C2=O)cc1C,pIC50,[5],6.34
COc1cc2c(Oc3ccc(N/C=C4\C(=O)N(c5ccccc5C(F)(F)F)N=C4C)cc3F)ccnc2cc1OCCCN1CCOCC1,pIC50,[3],7.52
same,pIC50,[4],8.66
Clc1ccc(-c2cn3cccc(COc4nnc5ccc(Cl)nn45)c3n2)c(Cl)c1,pIC50,[6],7.27
same,pIC50,[7],6.60
COc1cc2c(Oc3ccc(NC(=O)/C=C/S(=O)(=O)c4ccccc4)cc3F)ccnc2cc1OCCCN1CCN(C)CC1,pIC50,[3],6.35
COC(=O)c1ccc(N2NC(=O)/C(=C/c3ccc(-c4ccc(Cl)c(C(=O)O)c4)o3)C2=O)cc1,pIC50,[5],5.02
OC1CCC(n2cc(-c3ncc4ncn(Cc5ccc6ncccc6c5)c4n3)cn2)CC1 (stereo not given),pIC50,[8],3.90
same,pIC50,[9],4.98
Fc1ccc(Cl)c(Sc2n[nH]c3ncc(-c4cnn(C5CCNCC5)c4)cc23)c1Cl,pIC50,[10],6.32
same,pIC50,[11],6.48
O=C(Nc1ccc(Oc2ccnc3[nH]c(-c4ccsc4)nc23)cc1)c1cccn(-c2ccc(F)cc2)c1=O,pIC50,[12],5.80
same,pIC50,[13],5.28
same,pIC50,[14],6.23
same,pIC50,[3],5.37
same,inhibition in vivo at 100 mg/kg,[15],30.9%
same,half-life,[16],2.07 h
same,Cmax,[17],2170 ng/mL
same,bioavailability,[18],28.3%
same,AUC,[19],6280 ng·h/mL
CNC(=O)c1ccc(-c2ccc3ncc(S(=O)(=O)n4ccc5cnccc54)n3c2)cc1F,pIC50,[20],8.00
same,pIC50,[21],7.70
COc1ccc2c(OCc3nnc4ncc(-c5ccccc5)nn34)ccnc2c1,pIC50,[3],7.68
same,pIC50,[22],7.92
COc1cc2c(Oc3ccc(NC(=O)Nc4nc5c(C)ccc(C)c5s4)cc3F)ccnc2cc1OCCCN1CCN(C)CC1,pIC50,[3],7.22
same,pIC50,[4],7.75
O=C(CSc1nc(=O)c(/C=C/c2ccco2)n[nH]1)N/N=C/c1cccs1,pIC50,[23],7.70
same,pIC50,[24],7.22
same,pIC50,[25],7.52
same,pIC50,[26],5.37
CC(C)=C1C/C=C(\C)CC/C=C(\C)CC1OS(=O)(=O)c1ccc(C)cc1 (stereo not given),inhibition,[27],56%
same,pIC50,[28],4.07
same,pIC50,[29],4.25
same,pIC50,[30],4.05
same,pIC50,[31],4.14
CC(C)=C1C/C=C(\C)CC/C=C(\C)CC1OC(=O)c1ccc(C)cc1 (stereo not given),pIC50,[28],4.07
same,pIC50,[29],4.17
same,pIC50,[30],4.08
same,pIC50,[31],4.12
c1cnc2ccc(Cn3nnc4ncc(-c5ccc6[nH]c7c(c6c5)CNCC7)nc43)cc2c1,pIC50,[32],7.84
CC(C)(C)OC(=O)N1CCc2c(sc3ncnc(Oc4ccc(NC(=O)C5(C(=O)Nc6ccc(F)cc6)CC5)cc4F)c23)C1,pIC50,[33],5.77
COc1cc2nccc(Oc3ccc(NC(=O)C4(Cl)CCCN(c5ccc(F)cc5)C4=O)cc3F)c2cc1OC (stereo not given),pIC50,[20],6.24
Cc1c(C(=O)Nc2ccc(Oc3ccnc(-c4nncn4CCCN4CCN(C)CC4)c3)c(F)c2)c(=O)n(-c2ccccc2)n1C,pIC50,[34],6.89
same,pIC50,[35],6.52
COc1cc2c(Oc3ccc(N/C=C(\C#N)C(=O)Nc4ccc(C)cc4)cc3F)ccnc2cc1OCCCN1CCN(C)CC1,pIC50,[3],6.41
same,pIC50,[36],7.40
